Holding throughout (assay): Ras GTP binding domain inhibition assay (labeled GTP)
In assay [1] the target is KRas G12C/Q61H double mutant (Homo sapiens (Human), UniProt P01116, G12C/Q61H). As to conditions: 20 μM compound. In outline: (§1)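 Fluorescence read-out of Cy3-/Cy5-GTP remaining bound to nickel-immobilized His-KRas after washes. Protein was coated overnight at 4° C, then exposed to compound for 3 h at room temperature before a 45 min labeled-GTP incubation.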
The target in assay [2] is KRas G12D/Q61H double mutant (Homo sapiens (Human), UniProt P01116, G12D/Q61H). As to conditions: for inhibition at 20 µM: 20 μM compound; for pIC50: serial dilution, read-out: KRas G12D Q61H (classes E-H, IC50). In outline: as §1
Sequence of KRas G12D/Q61H double mutant (P01116-2 other isoform, or with tags, fused parts or gaps G12D/Q61H): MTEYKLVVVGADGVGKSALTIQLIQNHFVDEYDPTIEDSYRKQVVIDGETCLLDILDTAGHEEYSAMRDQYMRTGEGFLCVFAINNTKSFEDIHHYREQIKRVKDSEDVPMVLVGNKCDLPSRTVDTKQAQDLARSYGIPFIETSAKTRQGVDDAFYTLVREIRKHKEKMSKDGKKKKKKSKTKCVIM
For a further assay, the target named is KRas Q61H mutant (Homo sapiens (Human), UniProt P01116, Q61H). As to conditions: 20 μM compound. In outline:
as §1

The mark [3] stands for this setting: KRas G12C/Q61H double mutant, read-out: % Inhibition at 20 μM of K-Ras mutant and wild-type protein, KRas G12C Q61H.
Setting [4] is: KRas G12D/Q61H double mutant, read-out: % Inhibition at 20 μM of K-Ras mutant and wild-type protein, KRas G12D Q61H.
Setting [5] is: KRas Q61H, read-out: % Inhibition at 20 μM of K-Ras mutant and wild-type protein, KRas Q61H.
Where [6] appears, read: read-out: % Inhibition at 20 μM KRas G12C Q61H.
Where [7] appears, read: read-out: % Inhibition at 20 μM KRas G12D Q61H.
[8] abbreviates: read-out: % Inhibition at 20 μM KRas Q61H.

pIC50: −log10 of the molar value. Read-outs that look alike come from different tables or passages of the source.

The inhibition is how much of the control response was suppressed. A word on the pIC50: it is −log10 of the IC50, conventionally taken in molar units.

Sequence of KRas G12C/Q61H double mutant (P01116-2 other isoform, or with tags, fused parts or gaps G12C/Q61H): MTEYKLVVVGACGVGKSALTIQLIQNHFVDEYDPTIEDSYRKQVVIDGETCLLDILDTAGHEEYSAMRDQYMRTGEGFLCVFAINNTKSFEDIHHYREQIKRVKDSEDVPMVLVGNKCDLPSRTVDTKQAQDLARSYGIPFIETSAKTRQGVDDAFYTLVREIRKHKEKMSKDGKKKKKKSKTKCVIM
Sequence of KRas Q61H mutant (P01116-2 other isoform, or with tags, fused parts or gaps Q61H): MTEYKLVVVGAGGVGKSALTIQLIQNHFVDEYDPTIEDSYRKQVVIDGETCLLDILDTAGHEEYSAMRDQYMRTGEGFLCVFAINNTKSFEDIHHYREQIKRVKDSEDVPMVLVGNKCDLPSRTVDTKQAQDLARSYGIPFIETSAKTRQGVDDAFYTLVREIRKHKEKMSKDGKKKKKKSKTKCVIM

As to `COCCNc1nc(-c2ccccn2)nc(-c2cccc(OCCN(C)C)c2)c1Oc1ccccc1` [drawing 3529], the inhibition at 20 µM (in assay [1] (setting [3]); in assay [2] (setting [4]); at KRas Q61H mutant (setting [5])) was 1 to 25% in each case.
On to `Oc1nc(-c2ccccn2)nc2cc(-c3cccc(Br)c3)sc12` [drawing 3564], for which the inhibition at 20 µM in assay [1] (setting [3]) is 1 to 25%; in assay [2] (setting [4]), 25 to 50%; on KRas Q61H mutant (setting [5]), 25 to 50%.
As for `Cc1c(Br)sc2c(O)nc(-c3ccccn3)nc12` [drawing 3474], the inhibition at 20 µM in assay [1] (setting [3]) is 25 to 50%; in assay [2] (setting [4]) it was 25 to 50%; on KRas Q61H mutant (setting [5]), 51 to 75%.
`Cc1ccccc1C1CN(C(=O)c2csc3c(O)nc(-c4ccccn4)nc23)CCN1` (centres unmarked) [drawing 2775]: the inhibition at 20 µM in assay [1] (setting [6]) lay in the range of 51 to 75%; in assay [2] (setting [7]) it was 25 to 50%; at KRas Q61H mutant (setting [8]), 76 to 100%.
Regarding `COCCCCNC(=O)c1csc2nc(-c3ccccn3)nc(N3CCS(=O)(=O)CC3)c12` [drawing 2826], the inhibition at 20 µM (in assay [1] (setting [6]); in assay [2] (setting [7]); at KRas Q61H mutant (setting [8])) was 1 to 25% in each case.
Turning to `Oc1nc(-c2ccccn2)nc2c(-c3cnc4ccccc4c3)csc12` [drawing 3462], the inhibition at 20 µM lay in the range of 25 to 50% in assay [1] (setting [3]), 25 to 50% in assay [2] (setting [4]) and 51 to 75% on KRas Q61H mutant (setting [5]).
In the case of `O=C(NCCc1cccnc1)c1csc2nc(-c3ccccn3)nc(N3CCOCC3)c12` [drawing 2744], the values for the inhibition at 20 µM (in assay [1] (setting [6]); in assay [2] (setting [7]); on KRas Q61H mutant (setting [8])) were 25 to 50%, 1 to 25% and 51 to 75%, respectively.
Regarding `O=C(c1csc2c(O)nc(-c3ccccn3)nc12)N1CCN(c2ccc(O)c(Cl)c2)CC1` [drawing 2803], the inhibition at 20 µM (in assay [1] (setting [6]); in assay [2] (setting [7]); at KRas Q61H mutant (setting [8])) was 51 to 75% each time. Moreover, the pIC50 in assay [2] is 4.52 to 4.96.
`COc1ccc(CCNC(=O)c2csc3nc(-c4ccccn4)nc(N4CCS(=O)(=O)CC4)c23)cn1` [drawing 2853]: the inhibition at 20 µM (in assay [1] (setting [6]); in assay [2] (setting [7]); at KRas Q61H mutant (setting [8])) was 25 to 50% each time.
On to `Oc1nc(-c2ccccn2)nc2c(-c3cncc(C(F)F)c3)csc12` [drawing 3507], for which the inhibition at 20 µM (in assay [1] (setting [3]); in assay [2] (setting [4]); at KRas Q61H mutant (setting [5])) was 1 to 25% in each case.
For `COc1ccc(-c2cc3nc(-c4ccccn4)nc(O)c3s2)cc1` [drawing 3563], the inhibition at 20 µM (in assay [1] (setting [3]); in assay [2] (setting [4]); at KRas Q61H mutant (setting [5])) was 1 to 25% throughout.
As to `O=C(NCCc1ccncc1)c1csc2nc(-c3ccccn3)nc(N3CCOCC3)c12` [drawing 2779], the inhibition at 20 µM in assay [1] (setting [6]) was 51 to 75%; in assay [2] (setting [7]) it was 0%; at KRas Q61H mutant (setting [8]), 51 to 75%.
As to `Oc1nc(-c2ccccn2)nc2c(-c3cc(C(F)(F)F)ccc3F)csc12` [drawing 3465], the inhibition at 20 µM (in assay [1] (setting [3]); in assay [2] (setting [4]); at KRas Q61H mutant (setting [5])) was 1 to 25% each time.
For the molecule `Cc1sc2c(N)nc(-c3ccccn3)nc2c1-c1ccccc1` [drawing 2837], the inhibition at 20 µM in assay [1] (setting [6]) fell in the range of 1 to 25%; in assay [2] (setting [7]), 25 to 50%; at KRas Q61H mutant (setting [8]), 1 to 25%.
For `CC(C(=O)Nc1nc(-c2ccccn2)nc2sccc12)c1ccc(C#N)cc1` (centres unmarked) [drawing 2798], the inhibition at 20 µM in assay [1] (setting [6]) lay within 76 to 100%; in assay [2] (setting [7]), 1 to 25%; on KRas Q61H mutant (setting [8]), 76 to 100%.
For the molecule `Oc1nc(-c2ccccn2)nc2c(-c3ccc(Cl)c(Cl)c3)csc12` [drawing 3463], the inhibition at 20 µM in assay [1] (setting [3]) lay in the range of 1 to 25%; in assay [2] (setting [4]), 25 to 50%; at KRas Q61H mutant (setting [5]) it was 25 to 50%.
In the case of `O=C(c1csc2c(O)nc(-c3ccccn3)nc12)N1CCN(c2ccc(F)cc2F)CC1` [drawing 2760], the results for the inhibition at 20 µM (in assay [1] (setting [6]); in assay [2] (setting [7]); at KRas Q61H mutant (setting [8])) were 25 to 50%, 51 to 75% and 25 to 50%, respectively.
Consider `Cn1ccnc1-c1nc(O)c2c(-c3ccccc3)c(-c3ccccc3)sc2n1` [drawing 3536], for which the inhibition at 20 µM (in assay [1] (setting [3]); in assay [2] (setting [4]); at KRas Q61H mutant (setting [5])) was 1 to 25% in each case.
For `Nc1nc(-c2ccccn2)nc2c(-c3ccccc3Cl)csc12` [drawing 2835], the inhibition at 20 µM (in assay [1] (setting [6]); in assay [2] (setting [7]); on KRas Q61H mutant (setting [8])) was 1 to 25% each time.
Take `Cc1ccccc1N1CCN(C(=O)c2csc3c(O)nc(-c4ccccn4)nc23)CC1` [drawing 2723]: the inhibition at 20 µM in assay [1] (setting [6]) was in the range of 51 to 75%; in assay [2] (setting [7]) it was 25 to 50%; at KRas Q61H mutant (setting [8]), 51 to 75%.
In the case of `O=C(NCCc1cnc(O)nc1)c1csc2nc(-c3ccccn3)nc(N3CCS(=O)(=O)CC3)c12` [drawing 2854], the inhibition at 20 µM in assay [1] (setting [6]) was 1 to 25%; in assay [2] (setting [7]) it was 25 to 50%; on KRas Q61H mutant (setting [8]), 25 to 50%.
As to `COC(=O)c1c(C)sc2c(N)nc(-c3ccccn3)nc12` [drawing 3499], the inhibition at 20 µM in assay [1] (setting [3]) is 51 to 75%; in assay [2] (setting [4]) it was 51 to 75%; on KRas Q61H mutant (setting [5]), 76 to 100%.
As for `Nc1nc(O)c2sc(-c3cccc(C(=O)NCc4cccc(O)n4)c3)cc2n1` [drawing 3546], the inhibition at 20 µM in assay [1] (setting [3]) was 1 to 25%; in assay [2] (setting [4]) it was 0%; on KRas Q61H mutant (setting [5]) it was 0%.
Regarding `Cc1cnc(-c2ccccn2)nc1NC(=O)C(C)c1ccc(C#N)cc1` (centres unmarked) [drawing 2797], the inhibition at 20 µM in assay [1] (setting [6]) is 51 to 75%; in assay [2] (setting [7]), 1 to 25%; at KRas Q61H mutant (setting [8]) it was 51 to 75%.
In the case of `O=C(c1csc2c(O)nc(-c3ccccn3)nc12)N1CCOC(c2ccccc2)C1` (centres unmarked) [drawing 2766], the inhibition at 20 µM lay in the range of 25 to 50% in assay [1] (setting [6]), 1 to 25% in assay [2] (setting [7]) and 51 to 75% at KRas Q61H mutant (setting [8]).
In the case of `Cc1ccc(-c2csc3c(O)nc(-c4ccccn4)nc23)cc1` [drawing 3560], the inhibition at 20 µM (in assay [1] (setting [3]); in assay [2] (setting [4]); on KRas Q61H mutant (setting [5])) was 1 to 25% in each case.
Take `COc1ccc(C2CN(C(=O)c3csc4c(O)nc(-c5ccccn5)nc34)CCO2)cc1` (centres unmarked) [drawing 2768]: the inhibition at 20 µM (in assay [1] (setting [6]); in assay [2] (setting [7]); on KRas Q61H mutant (setting [8])) was 25 to 50% each time.
On to `O=C(c1csc2c(O)nc(-c3ccccn3)nc12)N1CCN(Cc2cccc(O)c2)CC1` [drawing 2726], for which the inhibition at 20 µM (in assay [1] (setting [6]); in assay [2] (setting [7]); on KRas Q61H mutant (setting [8])) was 76 to 100% throughout. Further, the pIC50 in assay [2] is 4.52 to 4.96.
Take `O=C(c1csc2c(O)nc(-c3ccccn3)nc12)N1CCOC(c2cccc(Cl)c2)C1` (centres unmarked) [drawing 2770]: the inhibition at 20 µM in assay [1] (setting [6]) was 25 to 50%; in assay [2] (setting [7]), 1 to 25%; at KRas Q61H mutant (setting [8]), 51 to 75%.
As for `O=C(c1csc2c(O)nc(-c3ccccn3)nc12)N1CCN(Cc2ccc(O)cc2)CC1` [drawing 2764], the inhibition at 20 µM is 25 to 50% in assay [1] (setting [6]), 1 to 25% in assay [2] (setting [7]) and 25 to 50% at KRas Q61H mutant (setting [8]).
In the case of `COCCCCNC(=O)c1csc2nc(-c3ccccn3)nc(N3CCOCC3)c12` [drawing 2789], the inhibition at 20 µM in assay [1] (setting [6]) was in the range of 1 to 25%; in assay [2] (setting [7]), 1 to 25%; at KRas Q61H mutant (setting [8]), 25 to 50%.
Turning to `O=C(c1cc2nc(-c3ccccn3)nc(O)c2s1)N1CCOC(c2ccccc2)C1` (centres unmarked) [drawing 2842], the inhibition at 20 µM in assay [1] (setting [6]) is 51 to 75%; in assay [2] (setting [7]), 51 to 75%; on KRas Q61H mutant (setting [8]), 76 to 100%.

These data come from US10940139B2, “Compounds that interact with the Ras superfamily for the treatment of cancers, inflammatory diseases, rasopathies, and fibrotic disease” (Shy Therapeutics LLC, priority 2017, dated 2021).
